Values of other authors in patent publication US20030124112A1, “Use of a lacrophyl preparation in eye drops containing therpeutically active compounds” (priority 2000, published 2003).

Key:
tear lysozyme = settings: dropped in the eye, glaucome
[1] = 0.0001% benzalkonium-chloride, in vitro

| effect on amount of tear lysozyme (tear lysozyme) | Compound | effect on cells [1] |
| --- | --- | --- |
| decrease of the amount of tear lysozyme | CC(C)(C)NCC(O)COc1cccc2c1CCC(=O)N2 (stereo not drawn) [cartelol] | – |
| decrease of the amount of tear lysozyme | CC(C)(C)NC[C@H](O)COc1nsnc1N1CCOCC1 [timolol] | – |
| – | benzalkonium-chloride | causes cell death |
